The text below walks through data of patent publication US8541395B2 (priority 2009, dated 2013).

Test [1] concerns the target T1, KvLQT/minK (Homo sapiens, UniProt P51787).
T1 construct: expressed in transfected cells
Kind of test: Patch clamp assay, ion channel inhibition. Type of test: cell-based. The settings on record: 30 μM; n=2.
Description: (§1) The studies were conducted according to the conventional procedures.
(§2) The exposure duration of each channel was 5 minutes. […] Any left current after exposure to this dose was digitally subtracted to eliminate the contribution of any endogenous current.

For test [2], the target named is T2, Kv4.3 (Homo sapiens, UniProt Q9UK17).
T2 sequence (Q9UK17 1-655): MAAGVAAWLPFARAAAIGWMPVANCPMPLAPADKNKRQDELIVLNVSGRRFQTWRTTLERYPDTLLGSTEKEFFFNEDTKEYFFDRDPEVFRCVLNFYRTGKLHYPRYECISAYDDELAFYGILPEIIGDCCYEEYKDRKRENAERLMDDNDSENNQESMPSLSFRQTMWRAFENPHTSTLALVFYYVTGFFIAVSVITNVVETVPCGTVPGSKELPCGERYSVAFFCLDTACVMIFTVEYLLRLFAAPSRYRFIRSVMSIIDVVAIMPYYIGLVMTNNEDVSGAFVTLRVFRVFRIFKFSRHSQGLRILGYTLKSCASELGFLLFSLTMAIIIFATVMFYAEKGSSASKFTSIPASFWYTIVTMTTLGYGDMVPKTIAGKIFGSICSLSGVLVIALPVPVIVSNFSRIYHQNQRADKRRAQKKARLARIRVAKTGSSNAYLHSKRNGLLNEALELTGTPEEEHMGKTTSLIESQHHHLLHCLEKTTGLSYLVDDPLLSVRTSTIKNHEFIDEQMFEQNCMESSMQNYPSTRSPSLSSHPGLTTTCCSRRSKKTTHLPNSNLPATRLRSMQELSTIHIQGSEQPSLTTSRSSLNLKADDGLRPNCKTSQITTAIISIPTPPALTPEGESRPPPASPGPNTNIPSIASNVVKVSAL
Kind of test: Patch clamp assay, ion channel inhibition. The settings on record: read-out: Mean % inhibition (positive control). On the technique in general: In patch-clamp work, channel activity is measured electrically.
Description: as §1, §2

Test [3] has as its target Cav3.2 (Homo sapiens, UniProt O95180). Type of test: cell-based. The conditions noted are these: 100 μM; n=2.
Description: as §1, §2
For test [4], the target named is T3, HCN2 (Homo sapiens, UniProt Q9UL51).
T3 sequence (Q9UL51 1-889): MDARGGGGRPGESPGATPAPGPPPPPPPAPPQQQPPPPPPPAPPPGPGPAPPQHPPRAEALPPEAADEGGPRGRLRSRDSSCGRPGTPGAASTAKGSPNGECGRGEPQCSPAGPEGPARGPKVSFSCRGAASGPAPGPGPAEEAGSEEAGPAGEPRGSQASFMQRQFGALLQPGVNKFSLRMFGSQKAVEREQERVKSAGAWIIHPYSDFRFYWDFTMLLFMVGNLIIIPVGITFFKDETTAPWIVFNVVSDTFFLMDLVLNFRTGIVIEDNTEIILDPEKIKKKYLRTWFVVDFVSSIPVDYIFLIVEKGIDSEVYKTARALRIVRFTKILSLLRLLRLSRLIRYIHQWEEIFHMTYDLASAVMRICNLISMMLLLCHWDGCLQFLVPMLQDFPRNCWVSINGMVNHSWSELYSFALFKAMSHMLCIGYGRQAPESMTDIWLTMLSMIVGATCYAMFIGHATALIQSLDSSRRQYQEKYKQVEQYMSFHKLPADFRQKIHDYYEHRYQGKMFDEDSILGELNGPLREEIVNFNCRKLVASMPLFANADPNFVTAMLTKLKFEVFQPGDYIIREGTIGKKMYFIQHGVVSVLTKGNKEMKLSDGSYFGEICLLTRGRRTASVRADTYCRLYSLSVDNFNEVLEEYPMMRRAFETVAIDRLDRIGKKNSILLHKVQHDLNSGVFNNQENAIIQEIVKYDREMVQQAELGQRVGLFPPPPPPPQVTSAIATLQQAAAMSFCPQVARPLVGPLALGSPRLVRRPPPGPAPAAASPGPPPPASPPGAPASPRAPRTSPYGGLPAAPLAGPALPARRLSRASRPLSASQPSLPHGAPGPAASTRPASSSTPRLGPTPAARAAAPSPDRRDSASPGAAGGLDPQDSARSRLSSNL
Description: Patch clamp assay, ion channel inhibition. The conditions noted are these: read-out: Mean % inhibition (positive control).
Description: as §1, §2

Test [5] deals with T4, HCN4 (Homo sapiens, UniProt Q9Y3Q4).
T4 sequence (Q9Y3Q4 1-1203): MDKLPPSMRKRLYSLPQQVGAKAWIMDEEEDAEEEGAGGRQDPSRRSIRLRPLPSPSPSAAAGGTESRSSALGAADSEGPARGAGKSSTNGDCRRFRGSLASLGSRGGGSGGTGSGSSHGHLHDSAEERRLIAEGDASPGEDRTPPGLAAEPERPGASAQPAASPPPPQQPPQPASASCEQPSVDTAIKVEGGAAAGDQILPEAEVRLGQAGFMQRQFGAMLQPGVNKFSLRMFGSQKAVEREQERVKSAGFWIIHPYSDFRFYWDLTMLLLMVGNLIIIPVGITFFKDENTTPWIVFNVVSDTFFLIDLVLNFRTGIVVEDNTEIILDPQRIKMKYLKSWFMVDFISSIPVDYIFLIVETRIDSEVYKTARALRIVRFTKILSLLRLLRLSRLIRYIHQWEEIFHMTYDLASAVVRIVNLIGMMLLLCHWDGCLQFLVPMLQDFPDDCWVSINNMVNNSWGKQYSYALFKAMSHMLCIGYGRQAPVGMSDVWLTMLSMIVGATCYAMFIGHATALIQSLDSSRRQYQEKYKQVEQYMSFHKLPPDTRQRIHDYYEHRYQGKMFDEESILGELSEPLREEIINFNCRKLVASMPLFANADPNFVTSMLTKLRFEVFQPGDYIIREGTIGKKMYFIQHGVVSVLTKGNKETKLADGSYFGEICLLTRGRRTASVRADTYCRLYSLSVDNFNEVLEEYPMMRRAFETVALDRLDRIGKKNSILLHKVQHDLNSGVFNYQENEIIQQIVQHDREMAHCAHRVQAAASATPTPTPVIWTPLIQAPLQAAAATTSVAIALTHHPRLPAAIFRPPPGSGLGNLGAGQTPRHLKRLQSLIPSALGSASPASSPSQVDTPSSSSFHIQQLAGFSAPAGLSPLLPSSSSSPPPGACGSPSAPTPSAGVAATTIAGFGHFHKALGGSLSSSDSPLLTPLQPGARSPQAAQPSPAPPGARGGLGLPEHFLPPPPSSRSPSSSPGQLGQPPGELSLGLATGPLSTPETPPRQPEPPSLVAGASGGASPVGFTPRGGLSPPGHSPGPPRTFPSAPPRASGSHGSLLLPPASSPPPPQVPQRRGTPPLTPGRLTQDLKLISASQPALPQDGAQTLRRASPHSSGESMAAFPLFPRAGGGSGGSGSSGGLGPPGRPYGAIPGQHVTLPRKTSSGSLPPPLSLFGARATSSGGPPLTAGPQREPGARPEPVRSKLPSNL
Kind of test: Patch clamp assay, ion channel inhibition. The settings on record: read-out: Mean % inhibition (positive control).
Description: as §1, §2

Cav3.2, sequence (O95180 whole entry): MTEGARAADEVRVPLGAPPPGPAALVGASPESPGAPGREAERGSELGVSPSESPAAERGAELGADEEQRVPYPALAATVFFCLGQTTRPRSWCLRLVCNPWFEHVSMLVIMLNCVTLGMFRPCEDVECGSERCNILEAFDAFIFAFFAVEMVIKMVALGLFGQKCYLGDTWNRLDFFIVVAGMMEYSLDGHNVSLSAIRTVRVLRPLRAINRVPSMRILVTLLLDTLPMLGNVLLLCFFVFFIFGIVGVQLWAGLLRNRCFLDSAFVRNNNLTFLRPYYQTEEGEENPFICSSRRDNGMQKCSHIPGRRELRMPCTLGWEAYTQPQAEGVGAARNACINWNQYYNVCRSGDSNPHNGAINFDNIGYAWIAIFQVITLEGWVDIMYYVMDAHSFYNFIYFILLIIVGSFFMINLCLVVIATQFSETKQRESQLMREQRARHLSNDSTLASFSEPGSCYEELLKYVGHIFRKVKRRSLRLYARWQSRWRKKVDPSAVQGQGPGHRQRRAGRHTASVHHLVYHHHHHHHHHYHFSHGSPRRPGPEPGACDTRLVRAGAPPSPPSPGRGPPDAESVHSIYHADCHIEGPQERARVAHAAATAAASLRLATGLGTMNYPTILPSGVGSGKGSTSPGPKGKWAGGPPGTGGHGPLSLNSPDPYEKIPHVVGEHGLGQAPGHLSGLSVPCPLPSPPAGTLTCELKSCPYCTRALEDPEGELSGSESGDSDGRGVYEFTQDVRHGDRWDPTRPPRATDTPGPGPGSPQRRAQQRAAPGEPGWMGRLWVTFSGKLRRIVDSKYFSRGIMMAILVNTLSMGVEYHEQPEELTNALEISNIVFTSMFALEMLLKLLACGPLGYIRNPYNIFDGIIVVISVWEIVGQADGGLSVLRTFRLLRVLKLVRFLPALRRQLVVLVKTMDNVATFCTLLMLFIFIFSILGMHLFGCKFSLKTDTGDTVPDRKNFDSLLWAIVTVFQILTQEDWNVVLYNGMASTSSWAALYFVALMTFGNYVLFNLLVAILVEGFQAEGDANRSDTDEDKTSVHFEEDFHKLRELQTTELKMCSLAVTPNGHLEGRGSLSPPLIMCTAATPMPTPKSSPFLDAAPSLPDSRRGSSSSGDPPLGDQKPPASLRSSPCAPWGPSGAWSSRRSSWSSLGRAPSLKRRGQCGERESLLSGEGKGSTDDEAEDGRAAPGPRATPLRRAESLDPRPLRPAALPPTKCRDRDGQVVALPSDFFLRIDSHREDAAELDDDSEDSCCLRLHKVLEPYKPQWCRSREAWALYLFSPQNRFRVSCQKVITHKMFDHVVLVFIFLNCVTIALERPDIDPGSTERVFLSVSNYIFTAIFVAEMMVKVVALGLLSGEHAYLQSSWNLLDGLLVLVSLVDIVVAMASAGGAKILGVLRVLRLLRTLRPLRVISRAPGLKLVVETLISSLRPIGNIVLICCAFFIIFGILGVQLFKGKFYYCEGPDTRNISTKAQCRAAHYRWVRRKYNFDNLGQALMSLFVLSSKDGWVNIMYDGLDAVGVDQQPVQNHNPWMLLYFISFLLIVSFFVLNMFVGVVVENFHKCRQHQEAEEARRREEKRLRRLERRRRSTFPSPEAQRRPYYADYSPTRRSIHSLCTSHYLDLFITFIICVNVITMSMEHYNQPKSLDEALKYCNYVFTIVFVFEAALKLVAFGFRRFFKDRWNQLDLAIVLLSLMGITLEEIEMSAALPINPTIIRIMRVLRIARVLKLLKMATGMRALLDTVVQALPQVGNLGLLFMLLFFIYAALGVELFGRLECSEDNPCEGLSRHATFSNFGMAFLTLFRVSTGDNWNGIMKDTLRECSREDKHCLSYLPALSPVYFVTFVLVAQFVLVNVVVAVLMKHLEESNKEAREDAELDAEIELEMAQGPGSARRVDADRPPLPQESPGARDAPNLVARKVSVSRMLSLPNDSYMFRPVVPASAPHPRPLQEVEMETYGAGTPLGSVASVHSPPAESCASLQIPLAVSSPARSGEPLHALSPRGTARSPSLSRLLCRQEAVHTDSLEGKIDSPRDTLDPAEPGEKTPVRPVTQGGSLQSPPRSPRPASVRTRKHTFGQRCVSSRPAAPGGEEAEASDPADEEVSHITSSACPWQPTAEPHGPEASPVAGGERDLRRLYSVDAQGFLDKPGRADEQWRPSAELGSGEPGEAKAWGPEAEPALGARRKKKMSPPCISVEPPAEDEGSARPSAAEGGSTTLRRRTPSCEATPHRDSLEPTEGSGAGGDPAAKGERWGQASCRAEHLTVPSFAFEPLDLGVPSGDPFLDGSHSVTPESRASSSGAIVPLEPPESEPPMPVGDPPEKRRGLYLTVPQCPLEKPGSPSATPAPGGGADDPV
T1 sequence (P51787 whole entry): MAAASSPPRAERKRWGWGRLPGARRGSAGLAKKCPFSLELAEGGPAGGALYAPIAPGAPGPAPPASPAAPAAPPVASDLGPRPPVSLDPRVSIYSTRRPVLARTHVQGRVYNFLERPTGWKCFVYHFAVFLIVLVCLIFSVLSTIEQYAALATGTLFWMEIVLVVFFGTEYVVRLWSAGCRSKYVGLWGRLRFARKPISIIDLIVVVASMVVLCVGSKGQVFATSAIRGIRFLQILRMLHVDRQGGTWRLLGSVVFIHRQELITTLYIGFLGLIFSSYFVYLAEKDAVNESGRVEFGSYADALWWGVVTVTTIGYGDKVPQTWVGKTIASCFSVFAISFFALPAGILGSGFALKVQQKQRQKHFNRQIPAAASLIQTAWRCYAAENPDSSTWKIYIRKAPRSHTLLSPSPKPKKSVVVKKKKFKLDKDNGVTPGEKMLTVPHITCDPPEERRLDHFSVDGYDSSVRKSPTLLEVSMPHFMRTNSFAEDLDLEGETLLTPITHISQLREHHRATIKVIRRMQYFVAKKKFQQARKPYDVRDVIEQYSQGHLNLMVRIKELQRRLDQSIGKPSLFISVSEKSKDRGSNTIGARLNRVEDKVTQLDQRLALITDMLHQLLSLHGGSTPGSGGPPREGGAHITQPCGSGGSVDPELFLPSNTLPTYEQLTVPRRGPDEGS

For `CCS(=O)(=O)N(C)[C@H]1c2cc(C#N)ccc2OC(C)(C)[C@@H]1O` [Chromanol-293B], the “Mean % inhibition (positive control)” value in test [1] was 87.8%.
For the compound `O=C(NCC1CCCCN1)c1cc(OCC(F)(F)F)ccc1OCC(F)(F)F` (centres unmarked) [Flecainide], the inhibition at 100 µM in test [2] was found to be 96.1%.
Consider `[Ni]` [Nickel], for which the “Mean % inhibition (positive control)” value in test [3] worked out at 76.6%.
For the compound `COc1ccc(CCN(C)CCCN2CCc3cc(OC)c(OC)cc3CC2=O)cc1OC` [Zatebradine], in test [4], the inhibition at 100 µM came out at 96.1%. The inhibition at 10 µM in test [5] came to 88.3%.

In general, inhibition refers to how much of the control response was suppressed.
